The values that follow come from ChEMBL document CHEMBL5634134, “Design, synthesis, and biological evaluation of novel 4,4'-bipyridine derivatives acting as CDK9-Cyclin T1 protein-protein interaction inhibitors against triple-negative breast cancer” (Eur J Med Chem, 2023).

This experiment has as its system MDA-MB-231. The experiment in a line: Induction of apoptosis in human MDA-MB-231 cells transfected with shCDK9 assessed as increase in cleaved PARP expression at 300 nM by Western blot analysis. The format is functional, cell-based.

Activity calls are given as the source filed them. The calls are words filed in the database; no cut-off is given here.

On to `COc1ccc(C(=O)Nc2cc(-c3ccnc(N4CCC(O)CC4)c3)ccn2)cc1`, for which the outcome was inactive.
